Reference: PMC7156458, “Synthetic biology based construction of biological activity-related library of fungal decalin-containing diterpenoid pyrones” (Nature Communications, 2020)

Target: Aβ42 (Homo sapiens, UniProt P05067)
Assay: Th-T (thioflavin-T) assay of Aβ42 aggregation
Format: biochemical
Settings: for Th-T fluorescence, mean of three wells: Aβ42 aggregation time course

Sequence of Aβ42 (P05067 672-713): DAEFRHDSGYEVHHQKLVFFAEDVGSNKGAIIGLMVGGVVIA

Structure (SMILES): C=C1CCC2C(C)(CCC=C(C)C)C(O)CCC2(C)C1Cc1c(OC)oc(CO)c(C)c1=O (stereo not drawn) [Compound 12]
- delay of the nucleation phase: no delay
- elongation of Aβ42: partly suppressed the elongation of Aβ42
- first Th-T assay result (Aβ42 (10 μM) ± DPPs (20 μM), room temperature): suppressed Aβ42
- Th-T fluorescence, mean of three wells (reading M117): 2.054
- Th-T fluorescence, mean of three wells (reading M118): 2.063
- Th-T fluorescence, mean of three wells (reading M119): 2.053
- Th-T fluorescence, mean of three wells (reading M120): 2.05
- Th-T fluorescence, mean of three wells (reading M121): 2.047
- Th-T fluorescence, mean of three wells (reading M122): 2.039
- Th-T fluorescence, mean of three wells (reading M123): 2.052
- Th-T fluorescence, mean of three wells (reading M124): 2.0354
- Th-T fluorescence, mean of three wells (reading M125): 2.03
- Th-T fluorescence, mean of three wells (reading M126): 2.03
- Th-T fluorescence, mean of three wells (reading M127): 2.041
- Th-T fluorescence, mean of three wells (reading M128): 2.036
- Th-T fluorescence, mean of three wells (reading M129): 2.023
- Th-T fluorescence, mean of three wells (reading M130): 2.033
- Th-T fluorescence, mean of three wells (Fig. 7a) (column suffix _10, measurement M19): 2.572
- Th-T fluorescence, mean of three wells (Fig. 7a) (column suffix _10, measurement M20): 2.604
- Th-T fluorescence, mean of three wells (Fig. 7a) (column suffix _10, measurement M21): 2.632
- Th-T fluorescence, mean of three wells (Fig. 7a) (column suffix _10, measurement M22): 2.671
- Th-T fluorescence, mean of three wells (Fig. 7a) (column suffix _10, measurement M23): 2.692
- Th-T fluorescence, mean of three wells (Fig. 7a) (column suffix _10, measurement M24): 2.757
- Th-T fluorescence, mean of three wells (Fig. 7a) (column suffix _10, measurement M25): 2.768
- Th-T fluorescence, mean of three wells (Fig. 7a) (column suffix _10, measurement M26): 2.841
- Th-T fluorescence, mean of three wells (Fig. 7a) (column suffix _10, measurement M27): 2.803
- Th-T fluorescence, mean of three wells (Fig. 7a) (column suffix _10, measurement M28): 2.855
- Th-T fluorescence, mean of three wells (Fig. 7a) (column suffix _10, measurement M29): 2.853
- Th-T assay signal, mean of three wells (Fig. 7a) (column suffix _10, reading M1): 0.2279
- Th-T assay signal, mean of three wells (Fig. 7a) (column suffix _10, reading M2): 0.2383
- Th-T assay signal, mean of three wells (Fig. 7a) (column suffix _10, reading M3): 0.2633
- Th-T assay signal, mean of three wells (Fig. 7a) (column suffix _10, reading M4): 0.2928
- Th-T assay signal, mean of three wells (Fig. 7a) (column suffix _10, reading M5): 0.3222
- Th-T assay signal, mean of three wells (Fig. 7a) (column suffix _10, reading M6): 0.3621
- Th-T assay signal, mean of three wells (Fig. 7a) (column suffix _10, reading M7): 0.3868
- Th-T assay signal, mean of three wells (Fig. 7a) (column suffix _10, reading M8): 0.4315
- Th-T assay signal, mean of three wells (Fig. 7a) (column suffix _10, reading M9): 0.4649
- Th-T assay signal, mean of three wells (Fig. 7a) (column suffix _10, reading M10): 0.5209
- Th-T assay signal, mean of three wells (Fig. 7a) (column suffix _10, reading M11): 0.5656
- Th-T assay signal, mean of three wells (Fig. 7a) (column suffix _10, reading M12): 0.6921
- Th-T assay signal, mean of three wells (Fig. 7a) (column suffix _10, reading M13): 1.089
- Th-T assay signal, mean of three wells (Fig. 7a) (column suffix _10, reading M14): 1.582
- Th-T assay signal, mean of three wells (Fig. 7a) (column suffix _10, reading M15): 1.98
- Th-T assay signal, mean of three wells (Fig. 7a) (column suffix _10, reading M16): 2.245
- Th-T assay signal, mean of three wells (Fig. 7a) (column suffix _10, reading M17): 2.406
- Th-T assay signal, mean of three wells (Fig. 7a) (column suffix _10, reading M18): 2.511
- Fig. 7a Th-T reading, mean of three wells (column suffix _10, reading M85): 3.136
- Fig. 7a Th-T reading, mean of three wells (column suffix _10, reading M86): 3.133
- Fig. 7a Th-T reading, mean of three wells (column suffix _10, reading M87): 3.112
- Fig. 7a Th-T reading, mean of three wells (column suffix _10, reading M88): 3.093
- Fig. 7a Th-T reading, mean of three wells (column suffix _10, reading M89): 3.066
- Fig. 7a Th-T reading, mean of three wells (column suffix _10, reading M90): 3.046
- Fig. 7a Th-T reading, mean of three wells (column suffix _10, reading M91): 3.03
- Fig. 7a Th-T reading, mean of three wells (column suffix _10, reading M92): 3.012
- Fig. 7a Th-T reading, mean of three wells (column suffix _10, reading M93): 2.997
- Fig. 7a Th-T reading, mean of three wells (column suffix _10, reading M94): 2.971
- Fig. 7a Th-T reading, mean of three wells (column suffix _10, reading M95): 2.948
- Fig. 7a Th-T reading, mean of three wells (column suffix _10, reading M96): 2.943
- Fig. 7a Th-T reading, mean of three wells (column suffix _10, reading M97): 2.923
- Fig. 7a Th-T reading, mean of three wells (column suffix _10, reading M98): 2.913
- Fig. 7a Th-T reading, mean of three wells (column suffix _10, reading M99): 2.8964
- Fig. 7a Th-T reading, mean of three wells (column suffix _10, reading M100): 2.873
- Fig. 7a Th-T reading, mean of three wells (column suffix _10, reading M101): 2.854
- Fig. 7a Th-T reading, mean of three wells (column suffix _10, reading M102): 2.835
- Fig. 7a Th-T reading, mean of three wells (column suffix _10, reading M103): 2.818
- Fig. 7a Th-T reading, mean of three wells (column suffix _10, reading M104): 2.806
- Fig. 7a Th-T reading, mean of three wells (column suffix _10, reading M105): 2.7797
- Fig. 7a Th-T reading, mean of three wells (column suffix _10, reading M106): 2.769
- Th-T fluorescence, mean of three wells (Fig. 7a) (column suffix _20, measurement M19): 2.538
- Th-T fluorescence, mean of three wells (Fig. 7a) (column suffix _20, measurement M20): 2.543
- Th-T fluorescence, mean of three wells (Fig. 7a) (column suffix _20, measurement M21): 2.5199
- Th-T fluorescence, mean of three wells (Fig. 7a) (column suffix _20, measurement M22): 2.494
- Th-T fluorescence, mean of three wells (Fig. 7a) (column suffix _20, measurement M23): 2.481
- Th-T fluorescence, mean of three wells (Fig. 7a) (column suffix _20, measurement M24): 2.476
- Th-T fluorescence, mean of three wells (Fig. 7a) (column suffix _20, measurement M25): 2.43
- Th-T fluorescence, mean of three wells (Fig. 7a) (column suffix _20, measurement M26): 2.427
- Th-T fluorescence, mean of three wells (Fig. 7a) (column suffix _20, measurement M27): 2.441
- Th-T fluorescence, mean of three wells (Fig. 7a) (column suffix _20, measurement M28): 2.387
- Th-T fluorescence, mean of three wells (Fig. 7a) (column suffix _20, measurement M29): 2.411
- Th-T fluorescence, mean of three wells (Fig. 7a) (column suffix _20, measurement M30): 2.389
- Th-T assay signal, mean of three wells (Fig. 7a) (column suffix _20, reading M1): 0.2949
- Th-T assay signal, mean of three wells (Fig. 7a) (column suffix _20, reading M2): 0.3314
- Th-T assay signal, mean of three wells (Fig. 7a) (column suffix _20, reading M3): 0.3699
- Th-T assay signal, mean of three wells (Fig. 7a) (column suffix _20, reading M4): 0.6391
- Th-T assay signal, mean of three wells (Fig. 7a) (column suffix _20, reading M5): 1.147
- Th-T assay signal, mean of three wells (Fig. 7a) (column suffix _20, reading M6): 1.822
- Th-T assay signal, mean of three wells (Fig. 7a) (column suffix _20, reading M7): 2.22
- Th-T assay signal, mean of three wells (Fig. 7a) (column suffix _20, reading M8): 2.421
- Th-T assay signal, mean of three wells (Fig. 7a) (column suffix _20, reading M9): 2.522
- Th-T assay signal, mean of three wells (Fig. 7a) (column suffix _20, reading M10): 2.562
- Th-T assay signal, mean of three wells (Fig. 7a) (column suffix _20, reading M11): 2.583
- Th-T assay signal, mean of three wells (Fig. 7a) (column suffix _20, reading M12): 2.606
- Th-T assay signal, mean of three wells (Fig. 7a) (column suffix _20, reading M13): 2.583
- Th-T assay signal, mean of three wells (Fig. 7a) (column suffix _20, reading M14): 2.612
- Th-T assay signal, mean of three wells (Fig. 7a) (column suffix _20, reading M15): 2.602
- Th-T assay signal, mean of three wells (Fig. 7a) (column suffix _20, reading M16): 2.5699
- Th-T assay signal, mean of three wells (Fig. 7a) (column suffix _20, reading M17): 2.585
- Th-T assay signal, mean of three wells (Fig. 7a) (column suffix _20, reading M18): 2.567
- Fig. 7a Th-T reading, mean of three wells (column suffix _20, reading M85): 2.083
- Fig. 7a Th-T reading, mean of three wells (column suffix _20, reading M86): 2.058
- Fig. 7a Th-T reading, mean of three wells (column suffix _20, reading M87): 2.078
- Fig. 7a Th-T reading, mean of three wells (column suffix _20, reading M88): 2.109
- Fig. 7a Th-T reading, mean of three wells (column suffix _20, reading M89): 2.106
- Fig. 7a Th-T reading, mean of three wells (column suffix _20, reading M90): 2.088
- Fig. 7a Th-T reading, mean of three wells (column suffix _20, reading M91): 2.094
- Fig. 7a Th-T reading, mean of three wells (column suffix _20, reading M92): 2.104
- Fig. 7a Th-T reading, mean of three wells (column suffix _20, reading M93): 2.083
- Fig. 7a Th-T reading, mean of three wells (column suffix _20, reading M94): 2.114
- Fig. 7a Th-T reading, mean of three wells (column suffix _20, reading M95): 2.102
- Fig. 7a Th-T reading, mean of three wells (column suffix _20, reading M96): 2.08
- Fig. 7a Th-T reading, mean of three wells (column suffix _20, reading M97): 2.11
- Fig. 7a Th-T reading, mean of three wells (column suffix _20, reading M98): 2.085
- Fig. 7a Th-T reading, mean of three wells (column suffix _20, reading M99): 2.135
- Fig. 7a Th-T reading, mean of three wells (column suffix _20, reading M100): 2.117
